Experimental findings from US20070161547A1, “Modulation of survivin expression” (priority 2003, published 2007) are described below.

This data set concerns human survivin mRNA. As to the kind of experiment: IC50 of dsRNA for survivin mRNA, dose response by quantitative RT-PCR ("D"). The class given is cell-based. The settings on record: D (dose response, mRNA levels), read-out: IC50. The protocol:
Representative parameters that can be studied include, for example, translation of survivin mRNAs or survivin protein synthesis; effect on surrogate markers; or any other parameter that is indicative of potential dsRNA therapeutic effectiveness that can be conveniently measured in vitro.
For western blot analysis, cells are plated in 10 cm tissue culture dishes (Falcon, #3003) at a density of 7.5×10^5 cells/dish. For RT-PCR analysis, 96-well plates (Corning Incorporated, #3596) are plated with 1×10^4 cells/well. Lipofectin (GIBCO/Invitrogen) transfection reagent is used at a concentration of 3 ul/ml OPTIMEM reduced serum medium (Gibco/Invitrogen)/100 nM siRNA duplex. Lipofectin reagent is incubated with OPTIMEM medium for 30 minutes prior to the addition of siRNA. The desired amount of siRNA is added and mixed. Further 1:1 dilutions are performed in OPTIMEM. Cells are washed twice with 1× phosphate buffered saline and then treated with the siRNA/Lipofectin mixture in OPTIMEM. After a 4 hr incubation period, OPTIMEM medium is replaced with complete growth medium. Cells are harvested after additional 16-20 hrs for Western blot or RT-PCR analysis.
Total RNA is isolated using RNeasy® 96 kit according to recommended protocol (Qiagen). Briefly, cells are washed with 200 ul PBS after removal of growth medium. Following washing, 100 μl buffer RLT is added, plate is shaken vigorously for about 20 seconds. To each well 100 μl 70% ethanol are added and mixed by pipetting up and down three times. Samples are then applied into the wells of the RNeasy 96 plate placed in the QIAvac top base of the QIAvac 96 manifold, which is attached to a vacuum source. Vacuum is applied for 30 seconds or until transfer is complete. To each well 80 μl of DNase I incubation mix (20 mM Tris-HCl, pH 8.4, 2 mM MgCl2, 50 mM KCl and 225 Units/ml DNase I from Invitrogen) is added and incubated at room temperature for 30 minutes. Buffer RW1 (1 ml/well) is added and the vacuum is applied for 30 seconds. Buffer RPE (1 ml/well) is added to each well and vacuum is applied for 30 seconds. Washing steps with buffer RW1 and RPE1 are repeated once more. The plate is then removed from the manifold and blotted dry on paper towels. The plate is placed back in the QIAvac manifold and the vacuum is applied for 10 minutes. To elute RNA 30 μl of RNase-free water is added directly onto the membrane of each well, incubated for 1 minutes and vacuum is applied for 30 seconds. In order to maximize the recovery of total RNA the elution step is repeated with additional 30 μl/well RNase-free water.
Quantitation of survivin and GAPDH mRNA levels is determined by real-time quantitative RT-PCR using the ABI PRISM® 7900 Sequence Detection System (Applied Biosystems). RT-PCR reactions are carried out by adding 15 ul of TaqMan One Step PCR Master Mix (Applied Biosystems, #4309169) reagents (containing 100 nM each of forward primer and reverse primer, and 200 nM probe) to 96-well plates with 10 μl total RNA. For human survivin, the forward PCR primer is: 5′[…]3′ (SEQ ID NO: 186), and the reverse primer is: 5′[…]3′ (SEQ ID NO: 187). The survivin TaqMan® probe used is 5′(FAM)[…]3′ (SEQ ID NO: 188) (Biosearch Technologies, Inc.). This primer-probe set, designed to SEQ ID No 14 was used for all experiments in Examples 15 to the end. For human GAPDH, TaqMan GAPDH Control Reagent Kit is used (Applied Biosystems, #402869). The percentage inhibition for each samples are calculated by comparing the survivin/GAPDH mRNA ratio for the sample to survivin/GAPDH mRNA ratio for the untreated control. The IC50 is derived from the non-linear regression analysis of the percentage inhibition data using GraphPad Prism software (GraphPad Software).
The constructs tested comprise the antisense strand in the 5′-3′ orientation, and the sense strand in the 5′ to 3′ orientation, In Table 15, “D” is dose response (mRNA levels) and “W” is Western blot. […]

Like-named read-outs stand apart in the source and are kept apart here.

With “339056_339086 (antisense UAAGGAACCUGCAGCUCAGA; sense UCUGAGCUGCAGGUUCCUUA; siRNA; unmodified RNA)”, the half-maximal inhibitory concentration (IC50) worked out at 1.72 nM (HeLa cells) and 0.51 nM (U-87 MG cells).
With “339058_339088 (antisense AACAAAAUAAGAAAGCCAUG; sense CAUGGCUUUCUUAUUUUGUU; siRNA; unmodified RNA)”, the 50% inhibitory concentration (IC50) (HeLa cells) was determined as 2.96 nM.
In the case of “339045_339075 (antisense AUCCAUGGCAGCCAGCUGCU; sense AGCAGCUGGCUGCCAUGGAU; siRNA; unmodified RNA)”, the IC50 worked out at 3.3 nM (HeLa cells) and 0.68 nM (U-87 MG cells).
Turning to “339052_339082 (antisense GCAAAAGGGACACUGCCUUC; sense GAAGGCAGUGUCCCUUUUGC; siRNA; unmodified RNA)”, the IC50 is, setting by setting: (HeLa cells) 2.41 nM; (U-87 MG cells) 1.15 nM.
Regarding “339048_339078 (antisense AUUUGAAAAUGUUGAUCUCC; sense GGAGAUCAACAUUUUCAAAU; siRNA; unmodified RNA)”, the 50% inhibitory concentration (IC50) (U-87 MG cells) turned out to be 0.34 nM.
For “339060_339090 (antisense AGUUUGUGCUAUUCUGUGAA; sense UUCACAGAAUAGCACAAACU; siRNA; unmodified RNA)”, under “HeLa cells”, the IC50 turned out to be 3.38 nM.

What is called IC50 is the concentration at which inhibition is half-maximal.
